In US12319684B2 (Sanford Burnham Prebys Medical Discovery Institute, priority 2014, dated 2025):
Read-outs that look alike come from different tables or passages of the source.

Target: T1, human apelin receptor (APJ, AGTRL-1, APLNR) (Homo sapiens, UniProt P35414)
T1 construct: host or cells: Chinese hamster ovary cells
T1 sequence (P35414 1-380): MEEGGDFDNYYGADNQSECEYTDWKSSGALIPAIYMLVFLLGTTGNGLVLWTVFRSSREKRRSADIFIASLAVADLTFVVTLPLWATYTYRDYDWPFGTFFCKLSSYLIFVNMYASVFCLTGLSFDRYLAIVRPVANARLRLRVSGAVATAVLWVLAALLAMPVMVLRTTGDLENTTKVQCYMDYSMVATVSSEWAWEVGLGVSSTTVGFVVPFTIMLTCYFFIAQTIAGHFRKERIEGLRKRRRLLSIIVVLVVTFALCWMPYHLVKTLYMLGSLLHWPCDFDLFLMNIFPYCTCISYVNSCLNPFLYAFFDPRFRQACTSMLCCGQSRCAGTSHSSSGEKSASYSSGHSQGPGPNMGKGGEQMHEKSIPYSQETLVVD
Test: APJ cAMP cell-based assay (forskolin-stimulated CHO cells, enzyme fragment complementation)
Settings: for EC50: CHO cells expressing human APJ, forskolin-stimulated, 0.5 h incubation, 50% of control (apelin-13, 1 nM) response, read-out: APJ cAMP EC50; for Emax: CHO, 0.5 h, read-out: APJ cAMP % resp (efficacy)
Protocol: The assays disclosed herein were performed using cell lines from DiscoveRx, Inc.
Biological activity was determined in a cell-based assay. This assay detects activation of the receptor by reporting on intracellular cyclic adenosine monophosphate (cAMP) level. Chinese hamster ovary cells engineered to express a stably integrated human apelin receptor (APJ, AGTRL-1, APLNR), were plated into the wells of a microtiter plate. Cells were stimulated with forskolin to increase intracellular cAMP. Immediately following, compounds were added at a range of final concentrations 0.0-100 μM, in DMSO (not to exceed a final DMSO concentration of >1% v/v), and allowed to incubate with the cells for 0.5 h. At the end of the incubation, cells were lysed to stop APJ signaling, and cAMP was quantified using a commercially available assay kit that applies enzyme fragment complementation technology and bioluminescence, in a competitive ELISA format.
Compound efficacy (% resp) is reported as a percentage of the maximal apelin-13 response at 1 nM (control).

[1] = percentage of the maximal apelin-13 response at 1 nM (control)

Row | Compound | EC50 [nM] | Emax [1] [%] | Emax [%]
1 | COc1ccccc1-n1c(SCc2cc(=O)n3cc(C)ccc3n2)nnc1-c1ccc(C)s1 [Example 11, 2-[4-(2-Methoxy-phenyl)-5-(5-methyl-thiophen-2-yl)-4H-[1,2,4]triazol-3-ylsulfanylmethyl]-7-methyl-pyrido[1,2-a]pyrimidin-4-one] | 70.4 | 118 | –
2 | Cc1ccc2nc(CSc3nnc(-c4cccs4)n3-c3ccccc3OC(F)(F)F)cc(=O)n2c1 [Example 27, 7-Methyl-2-[5-thiophen-2-yl-4-(2-trifluoromethoxy-phenyl)-4H-[1,2,4]triazol-3-ylsulfanylmethyl]-pyrido[1,2-a]pyrimidin-4-one] | 17.4 | 82 | –
3 | COc1ccccc1-n1c(SCc2nc(=O)c3cccc(C)c3[nH]2)nnc1-c1cccs1 [Example 58, 2-[4-(2-Methoxy-phenyl)-5-thiophen-2-yl-4H-[1,2,4]triazol-3-ylsulfanylmethyl]-8-methyl-1H-quinazolin-4-one] | 547 | 134 | –
4 | COc1ccccc1-n1c(SCc2ccc(Cl)cc2)nnc1-c1cccs1 [Example 70, 3-(4-Chloro-benzylsulfanyl)-4-(2-methoxy-phenyl)-5-thiophen-2-yl-4H-[1,2,4]triazole] | 2030 | 134 | –
5 | COc1ccccc1-n1c(SCc2nc(=O)c3cc(F)ccc3[nH]2)nnc1-c1cccs1 [Example 55, 6-Fluoro-2-[4-(2-methoxy-phenyl)-5-thiophen-2-yl-4H-[1,2,4]triazol-3-ylsulfanylmethyl]-1H-quinazolin-4-one] | 9 | 109 | –
6 | COc1ccccc1-n1c(SCc2cc(F)cc(F)c2)nnc1-c1cccs1 [Example 77, 3-(3,5-Difluoro-benzylsulfanyl)-4-(2-methoxy-phenyl)-5-thiophen-2-yl-4H-[1,2,4]triazole] | 8440 | 111 | –
7 | COc1ccccc1-n1c(SCc2csc(-c3ccc(F)cc3)n2)nnc1-c1cccs1 [Example 33, 3-[2-(4-Fluoro-phenyl)-thiazol-4-ylmethylsulfanyl]-4-(2-methoxy-phenyl)-5-thiophen-2-yl-4H-[1,2,4]triazole] | 1170 | 80 | –
8 | COc1ccccc1-n1c(SCc2cc(=O)n3cc(C)ccc3n2)nnc1-c1ccc(C)o1 [Example 15, 2-[4-(2-Methoxy-phenyl)-5-(5-methyl-furan-2-yl)-4H-[1,2,4]triazol-3-ylsulfanylmethyl]-7-methyl-pyrido[1,2-a]pyrimidin-4-one] | 4.44 | 52 | –
9 | COc1ccccc1-n1c(SCc2cc(=O)n3cc(C)ccc3n2)nnc1-c1ccc(C#N)cc1 [Example 13, 4-[4-(2-Methoxy-phenyl)-5-(7-methyl-4-oxo-4H-pyrido[1,2-a]pyrimidin-2-ylmethylsulfanyl)-4H-[1,2,4]triazol-3-yl]-benzonitrile] | 1420 | 94 | –
10 | COc1ccccc1-n1c(SCc2csc(-c3ccc([N+](=O)[O-])cc3)n2)nnc1-c1cccs1 [Example 34, 4-(2-Methoxy-phenyl)-3-[2-(4-nitro-phenyl)-thiazol-4-ylmethylsulfanyl]-5-thiophen-2-yl-4H-[1,2,4]triazole] | > 10000 | 120 | –
11 | COc1ccccc1-n1c(NCc2csc(-c3ccc(C)cc3)n2)nnc1-c1cccs1 [Example 86, [4-(2-Methoxy-phenyl)-5-thiophen-2-yl-4H-[1,2,4]triazol-3-yl]-(2-p-tolyl-thiazol-4-ylmethyl)-amine] | > 10000 | – | –
12 | COc1ccccc1-n1c(SCc2cc(=O)n3cc(C)ccc3n2)nnc1-c1ccc(Br)s1 [Example 8, 2-[5-(5-Bromo-thiophen-2-yl)-4-(2-methoxy-phenyl)-4H-[1,2,4]triazol-3-ylsulfanylmethyl]-7-methyl-pyrido[1,2-a]pyrimidin-4-one] | 551 | 137 | –
13 | Cc1ccc2nc(CSc3nnc(-c4cccs4)n3-c3ccccc3Cl)cc(=O)n2c1 [Example 29, 2-[4-(2-Chloro-phenyl)-5-thiophen-2-yl-4H-[1,2,4]triazol-3-ylsulfanylmethyl]-7-methyl-pyrido[1,2-a]pyrimidin-4-one] | 252 | 62 | –
14 | COc1ccccc1-n1c(SCc2cc(=O)n3cc(C#N)ccc3n2)nnc1-c1cccs1 [Example 47, 2-[4-(2-Methoxy-phenyl)-5-thiophen-2-yl-4H-[1,2,4]triazol-3-ylsulfanylmethyl]-4-oxo-4H-pyrido[1,2-a]pyrimidine-7-carbonitrile] | 25.2 | 54 | –
15 | COc1ccccc1-n1c(OCc2coc(-c3ccccc3)n2)nnc1-c1cccs1 [Example 81, 4-(2-Methoxy-phenyl)-3-(2-phenyl-oxazol-4-ylmethoxy)-5-thiophen-2-yl-4H-[1,2,4]triazole] | 238 | 101 | –
16 | COc1ccc(-n2c(SCc3cc(=O)n4cc(C)ccc4n3)nnc2-c2cccs2)cc1 [Example 20, 2-[4-(4-Methoxy-phenyl)-5-thiophen-2-yl-4H-[1,2,4]triazol-3-ylsulfanylmethyl]-7-methyl-pyrido[1,2-a]pyrimidin-4-one] | 5000 | – | 10
17 | COc1ccccc1-n1c(SCc2nc(=O)c3cc(C#N)ccc3[nH]2)nnc1-c1cccs1 [Example 54, 2-[4-(2-Methoxy-phenyl)-5-thiophen-2-yl-4H-[1,2,4]triazol-3-ylsulfanylmethyl]-4-oxo-1,4-dihydro-quinazoline-6-carbonitrile] | 31.3 | 118 | –
18 | COc1ccccc1-n1c(SCc2coc(-c3ccc(C(F)(F)F)cc3)n2)nnc1-c1cccs1 [Example 38, 4-(2-Methoxy-phenyl)-3-thiophen-2-yl-5-[2-(4-trifluoromethyl-phenyl)-oxazol-4-ylmethylsulfanyl]-4H-[1,2,4]triazole] | > 10000 | 18 | –
19 | COc1ccccc1-n1c(SCc2cc(=O)n3cc(Cl)ccc3n2)nnc1-c1cccs1 [Example 50, 7-Chloro-2-[4-(2-methoxy-phenyl)-5-thiophen-2-yl-4H-[1,2,4]triazol-3-ylsulfanylmethyl]-pyrido[1,2-a]pyrimidin-4-one] | 6.74 | 110 | –
20 | COc1ccccc1-n1c(SCc2csc(-c3ccc(C)cc3)n2)nnc1-c1cccs1 [Example 36, 4-(2-Methoxy-phenyl)-3-thiophen-2-yl-5-(2-p-tolyl-thiazol-4-ylmethylsulfanyl)-4H-[1,2,4]triazole] | > 10000 | 83 | –
21 | COc1ccccc1-n1c(SCc2coc(-c3ccc(C)cc3)n2)nnc1-c1cccs1 [Example 41, 4-(2-Methoxy-phenyl)-3-thiophen-2-yl-5-(2-p-tolyl-oxazol-4-ylmethylsulfanyl)-4H-[1,2,4]triazole] | 2490 | 58 | –
22 | COc1ccccc1-n1c(SCc2ccc(C)cc2)nnc1-c1cccs1 [Example 75, 4-(2-Methoxy-phenyl)-3-(4-methyl-benzylsulfanyl)-5-thiophen-2-yl-4H-[1,2,4]triazole] | 2740 | 70 | –
23 | COc1ccccc1-n1c(SCc2cc(=O)n3cc(C)ccc3n2)nnc1-c1sccc1C [Example 12, 2-[4-(2-Methoxy-phenyl)-5-(3-methyl-thiophen-2-yl)-4H-[1,2,4]triazol-3-ylsulfanylmethyl]-7-methyl-pyrido[1,2-a]pyrimidin-4-one] | 1490 | 89 | –
